Assay results from the supplement of paper PMC10307832.

Key:
Assay in all cases: relative viability (nuclei count vs DMSO), 5 days (fraction); higher = more cells survive
Trametinib + Pictilisib = compound: CC(=O)Nc1cccc(-n2c(=O)n(C3CC3)c(=O)c3c(Nc4ccc(I)cc4F)n(C)c(=O)c(C)c32)c1 [Trametinib] + CS(=O)(=O)N1CCN(Cc2cc3nc(-c4cccc5[nH]ncc45)nc(N4CCOCC4)c3s2)CC1 [Pictilisib] (partner 1 µM)
In short: (§1)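 Lung cancer cell lines, seeded in 1536-well plates, were treated the following day by pin tool with a single drug or with five library-drug doses (not always all listed) in √10 steps on top of a fixed anchor-drug dose. Cells were fixed and nuclei stained in one step after 5 days, and nuclei were counted. Relative viability is the nuclei count for treated wells divided by that for vehicle wells, reported as medians of duplicate plates.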

Trametinib + Pemetrexed = compound: CC(=O)Nc1cccc(-n2c(=O)n(C3CC3)c(=O)c3c(Nc4ccc(I)cc4F)n(C)c(=O)c(C)c32)c1 [Trametinib] + Nc1nc2[nH]cc(CCc3ccc(C(=O)N[C@@H](CCC(=O)O)C(=O)O)cc3)c2c(=O)[nH]1 [Pemetrexed] (partner 0.2 µM)
In short: as §1

[1] = compound: CN1C=C(C2=CC=CC=C21)/C=C\3/C4=C(C=CC=N4)NC3=O + COc1cccc2cc(-c3nc([C@H]4CC[C@H](C(=O)O)CC4)n4ncnc(N)c34)[nH]c12 [OSI-027] (partner 0.5 µM)
In short: as §1

[2] = compound: CN1C=C(C2=CC=CC=C21)/C=C\3/C4=C(C=CC=N4)NC3=O + N=C(N)NC(=N)NCCc1ccccc1 [Phenformin] (partner 250 µM)
In short: as §1

| Cell Line | relative viability (Trametinib + Pictilisib; first compound 0.0025 µM) | relative viability (Trametinib + Pictilisib; first compound 0.007906 µM) | relative viability (Trametinib + Pictilisib; first compound 0.025 µM) | relative viability (Trametinib + Pictilisib; first compound 0.07906 µM) | relative viability (Trametinib + Pictilisib; first compound 0.25 µM) | relative viability (Trametinib + Pemetrexed; first compound 0.0025 µM) | relative viability (Trametinib + Pemetrexed; first compound 0.007906 µM) | relative viability (Trametinib + Pemetrexed; first compound 0.025 µM) | relative viability (Trametinib + Pemetrexed; first compound 0.07906 µM) | relative viability (Trametinib + Pemetrexed; first compound 0.25 µM) | relative viability ([1]; first compound 0.02 µM) | relative viability ([1]; first compound 0.06325 µM) | relative viability ([1]; first compound 0.2 µM) | relative viability ([1]; first compound 0.6325 µM) | relative viability ([1]; first compound 2 µM) | relative viability ([2]; first compound 0.02 µM) | relative viability ([2]; first compound 0.06325 µM) | relative viability ([2]; first compound 0.2 µM) | relative viability ([2]; first compound 0.6325 µM) | relative viability ([2]; first compound 2 µM) |
| --- | --- | --- | --- | --- | --- | --- | --- | --- | --- | --- | --- | --- | --- | --- | --- | --- | --- | --- | --- | --- |
| HOP-62 | 0.597 | 0.229 | 0.128 | 0.133 | 0.0772 | 0.407 | 0.31 | 0.345 | 0.308 | 0.183 | 0.712 | 0.873 | 0.645 | 0.875 | 0.846 | 0.645 | 0.678 | 0.72 | 0.664 | 0.752 |
| LC-2-ad | 0.412 | 0.444 | 0.237 | 0.216 | 0.195 | 0.271 | 0.259 | 0.294 | 0.274 | 0.282 | 0.81 | 0.811 | 0.687 | 0.803 | 0.724 | 0.595 | 0.546 | 0.414 | 0.537 | 0.549 |
| SW 900 |  |  |  |  |  | 0.439 | 0.471 | 0.487 | 0.459 | 0.224 | 0.601 | 0.49 |  | 0.6 | 0.703 | 0.468 | 0.434 |  | 0.589 | 0.809 |
| NCI-H322M | 0.522 | 0.486 | 0.35 | 0.344 | 0.336 | 0.581 | 0.556 | 0.544 | 0.417 | 0.435 | 0.516 | 0.487 | 0.4 | 0.587 | 0.567 | 0.689 | 0.769 | 0.642 | 0.838 | 0.777 |
| SK-LU-1 | 0.535 | 0.399 | 0.251 | 0.278 | 0.256 | 0.951 | 0.866 | 0.822 | 0.582 | 0.353 | 0.273 | 0.284 | 0.333 | 0.354 | 0.382 | 0.409 | 0.41 | 0.444 | 0.524 | 0.646 |
| NCI-H1734 | 0.439 | 0.448 |  | 0.362 | 0.299 | 0.418 | 0.383 |  | 0.387 | 0.355 | 0.581 | 0.631 |  | 0.68 | 0.565 | 0.412 | 0.354 |  | 0.376 | 0.373 |
| HCC-44 | 0.581 | 0.428 | 0.276 | 0.291 | 0.272 | 0.647 | 0.702 | 0.734 | 0.763 | 0.772 | 0.478 | 0.486 |  | 0.455 | 0.457 | 0.187 | 0.122 | 0.115 | 0.135 | 0.136 |
| NCI-H1703 | 0.23 | 0.224 | 0.206 | 0.269 | 0.258 |  |  |  |  |  |  |  |  |  |  |  |  |  |  |  |
| NCI-H2170 | 0.281 | 0.276 |  | 0.238 | 0.249 | 0.281 | 0.267 |  | 0.271 | 0.237 | 0.718 | 0.69 | 0.55 | 0.764 | 0.668 | 0.354 | 0.366 | 0.327 | 0.405 | 0.4 |
| NCI-H1395 | 0.607 | 0.631 | 0.576 | 0.453 | 0.65 | 0.952 | 0.837 | 0.708 | 0.609 | 0.466 | 0.604 | 0.613 | 0.445 | 0.669 | 0.601 | 0.436 | 0.429 | 0.365 | 0.446 | 0.414 |
| NCI-H1355 | 0.339 | 0.313 | 0.199 | 0.228 | 0.214 | 1.03 | 0.946 | 0.516 | 0.717 | 0.615 | 0.371 | 0.348 | 0.3 | 0.345 | 0.362 | 0.439 | 0.388 | 0.398 | 0.358 | 0.434 |
| NCI-H1650 | 0.608 | 0.61 | 0.448 | 0.364 | 0.113 | 0.388 | 0.324 | 0.314 | 0.329 | 0.216 | 0.55 | 0.541 | 0.437 | 0.458 | 0.539 | 0.401 | 0.451 | 0.362 | 0.345 | 0.397 |
| IA-LM | 0.142 | 0.091 | 0.073 | 0.0818 | 0.0673 |  |  |  |  |  |  |  |  |  |  |  |  |  |  |  |
| NCI-H1666 | 0.267 | 0.371 | 0.276 | 0.255 | 0.244 | 0.881 | 0.742 | 0.753 | 0.695 | 0.693 | 0.853 | 0.914 | 0.842 | 0.729 | 0.818 | 0.57 | 0.527 | 0.481 | 0.577 | 0.494 |
| HCC-78 | 0.205 | 0.154 | 0.185 | 0.152 | 0.212 | 0.843 | 0.888 | 0.893 | 0.934 | 0.924 | 0.368 | 0.335 |  | 0.392 | 0.35 | 0.545 | 0.709 |  | 0.525 | 0.614 |
| H3255 | 0.436 | 0.344 | 0.334 | 0.237 | 0.206 | 0.538 | 0.506 | 0.514 | 0.473 | 0.463 | 0.676 | 0.627 | 0.532 | 0.621 | 0.53 | 0.384 | 0.36 | 0.341 | 0.327 | 0.366 |
| NCI-H23 | 0.348 | 0.357 | 0.217 | 0.27 | 0.189 | 0.549 | 0.47 | 0.437 | 0.305 | 0.264 | 0.497 | 0.555 | 0.459 | 0.538 | 0.517 | 0.829 | 0.77 | 0.693 | 0.718 | 0.797 |
| NCI-H1944 | 0.333 | 0.307 | 0.253 | 0.278 | 0.262 | 0.514 | 0.429 | 0.39 | 0.318 | 0.29 | 0.433 | 0.368 |  | 0.423 | 0.351 | 0.21 | 0.181 |  | 0.181 | 0.167 |
